In patent publication US10188704B2, “Enhanced melanoma cancer prevention by novel melanotropins” (ARIZONA BOARD OF REGENTS ON BEHALF OF THE UNIVERSITY OF …, priority 2015, dated 2019):
Like-named read-outs stand apart in the source and are kept apart here.

Columns and labels:
hMC1R [1] = molecular target: T1, hMC1R (Homo sapiens, UniProt Q01726); experiment: Competition binding assay with [125I]-NDP-α-MSH, whole HEK293 cells expressing hMC1R; conditions: for IC50 / MC1R % BE (Percent Binding Efficiency): Table 4; for IC50: 50% specific binding (N = 4), NB = 0% of 125I-NDP-α-MSH displacement observed at 10 μM, read-out: MC1R IC50; for MC1R % BE (Percent Binding Efficiency): maximal % of 125I-NDP-α-MSH displacement observed at 10 μM; for selectivity towards hMC1R (binding, versus hMC3R, hMC4R, hMC5R): statement in words, refers to Table 4
T1 construct: expressed in transfected cells; host or cells: HEK293

hMC3R [2] = molecular target: T2, hMC3R (Homo sapiens, UniProt P41968); experiment: Competition binding assay with [125I]-NDP-α-MSH, whole HEK293 cells expressing hMC3R; set-up: expressed in transfected cells; host or cells: HEK293; conditions: for MC3R % BE (Percent Binding Efficiency): maximal % of 125I-NDP-α-MSH displacement observed at 10 μM
hMC4R [3] = molecular target: T3, hMC4R (Homo sapiens, UniProt P32245); experiment: Competition binding assay with [125I]-NDP-α-MSH, whole HEK293 cells expressing hMC4R; set-up: expressed in transfected cells; host or cells: HEK293; conditions: for MC4R % BE (Percent Binding Efficiency): maximal % of 125I-NDP-α-MSH displacement observed at 10 μM
hMC5R [4] = molecular target: T4, hMC5R (Homo sapiens, UniProt P33032); experiment: Competition binding assay with [125I]-NDP-α-MSH, whole HEK293 cells expressing hMC5R; set-up: expressed in transfected cells; host or cells: HEK293; conditions: for MC5R % BE (Percent Binding Efficiency): maximal % of 125I-NDP-α-MSH displacement observed at 10 μM
hMC1R [5] = molecular target: T1, hMC1R; experiment: cAMP assay (intracellular cAMP accumulation) at hMC1R; type: cell-based; conditions: Table 2; cAMP activity; read-out: hMC1R % max effect
in vitro = in vitro ADME
hMC3R [6] = molecular target: T2, hMC3R; experiment: cAMP assay (intracellular cAMP accumulation) at hMC3R; type: cell-based; set-up: expressed in transfected cells; conditions: Table 2; for EC50: 50% maximal intracellular cAMP accumulation (N = 4), tested 10^-10 to 10^-5 M
hMC5R [7] = molecular target: T4, hMC5R; experiment: cAMP assay (intracellular cAMP accumulation) at hMC5R; type: cell-based; set-up: expressed in transfected cells; conditions: Table 2; for Emax: cAMP activity, read-out: hMC5R % max effect
hMC4R [8] = molecular target: T3, hMC4R; experiment: cAMP assay (intracellular cAMP accumulation) at hMC4R; type: cell-based; set-up: expressed in transfected cells; conditions: Table 2; for Emax: cAMP activity, read-out: hMC4R % max effect
[9] = Table 4, 50% specific binding (N = 4), NB = 0% of 125I-NDP-α-MSH displacement observed at 10 μM, read-out: MC3R IC50
[10] = Table 4, 50% specific binding (N = 4), NB = 0% of 125I-NDP-α-MSH displacement observed at 10 μM, read-out: MC4R IC50
[11] = Table 4, 50% specific binding (N = 4), NB = 0% of 125I-NDP-α-MSH displacement observed at 10 μM, read-out: MC5R IC50
[12] = Table 2, concentration of peptide at 50% specific binding (N = 4), tested 10^-10 to 10^-5 M, read-out: hMC3R IC50
[13] = Table 2, concentration of peptide at 50% specific binding (N = 4), tested 10^-10 to 10^-5 M, read-out: hMC5R IC50
[14] = 50% maximal intracellular cAMP accumulation (N = 4), tested 10^-10 to 10^-5 M

T4 sequence (P33032 whole entry): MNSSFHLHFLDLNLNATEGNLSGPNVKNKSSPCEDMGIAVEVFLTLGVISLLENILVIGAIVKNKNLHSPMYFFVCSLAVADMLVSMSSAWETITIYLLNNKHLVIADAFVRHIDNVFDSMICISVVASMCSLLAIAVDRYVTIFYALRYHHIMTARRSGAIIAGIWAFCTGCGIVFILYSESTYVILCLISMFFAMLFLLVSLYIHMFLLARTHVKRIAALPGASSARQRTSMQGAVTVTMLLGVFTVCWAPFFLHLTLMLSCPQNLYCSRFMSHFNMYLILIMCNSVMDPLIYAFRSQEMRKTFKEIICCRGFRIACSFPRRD
T2 sequence (P41968 whole entry): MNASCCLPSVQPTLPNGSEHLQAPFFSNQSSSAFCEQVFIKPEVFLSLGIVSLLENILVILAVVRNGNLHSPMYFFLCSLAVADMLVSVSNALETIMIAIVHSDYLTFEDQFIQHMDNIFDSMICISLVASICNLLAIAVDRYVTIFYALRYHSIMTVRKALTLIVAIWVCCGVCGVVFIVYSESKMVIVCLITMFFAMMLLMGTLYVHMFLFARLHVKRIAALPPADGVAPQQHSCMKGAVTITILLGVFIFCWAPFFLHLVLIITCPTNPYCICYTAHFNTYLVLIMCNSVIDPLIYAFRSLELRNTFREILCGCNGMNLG
T1 sequence (Q01726 whole entry): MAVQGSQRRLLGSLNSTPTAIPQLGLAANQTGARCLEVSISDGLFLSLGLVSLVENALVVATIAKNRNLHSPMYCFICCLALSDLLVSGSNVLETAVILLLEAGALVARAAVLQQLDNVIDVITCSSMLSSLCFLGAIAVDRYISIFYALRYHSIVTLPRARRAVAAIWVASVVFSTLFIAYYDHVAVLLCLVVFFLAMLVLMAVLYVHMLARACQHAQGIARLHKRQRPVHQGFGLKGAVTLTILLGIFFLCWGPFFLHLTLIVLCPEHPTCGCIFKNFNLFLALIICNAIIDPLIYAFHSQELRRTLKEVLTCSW
T3 sequence (P32245 whole entry): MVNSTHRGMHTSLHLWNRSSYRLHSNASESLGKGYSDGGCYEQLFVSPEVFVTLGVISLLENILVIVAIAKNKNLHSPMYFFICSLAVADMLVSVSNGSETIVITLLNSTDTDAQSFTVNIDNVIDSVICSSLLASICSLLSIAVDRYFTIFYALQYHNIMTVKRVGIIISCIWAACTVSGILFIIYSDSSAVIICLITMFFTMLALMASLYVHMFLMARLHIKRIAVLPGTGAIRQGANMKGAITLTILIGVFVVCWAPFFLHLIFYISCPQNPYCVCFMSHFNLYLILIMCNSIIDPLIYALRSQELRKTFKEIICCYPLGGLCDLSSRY

IC50 (hMC1R [1]) | IC50 (hMC3R [2]; [9]) | MC3R % BE (Percent Binding Efficiency) (hMC3R [2]; Table 4) | IC50 (hMC4R [3]; [10]) | MC4R % BE (Percent Binding Efficiency) (hMC4R [3]; Table 4) | IC50 (hMC5R [4]; [11]) | MC5R % BE (Percent Binding Efficiency) (hMC5R [4]; Table 4) | MC1R % BE (Percent Binding Efficiency) (hMC1R [1]) | Compound | also measured
0.198 µM | 1.62 µM | 53% | 1.02 µM | 100% | > 10 µM | 60% |  | CC(C)C[C@H](NC(=O)[C@@H](NC(=O)[C@@H](N)Cc1ccc(O)cc1)C(C)C)C(=O)NCC(=O)N[C@@H](Cc1c[nH]cn1)C(=O)N[C@@H](Cc1ccccc1)C(=O)N[C@@H](CCCNC(=N)N)C(=O)N[C@@H](Cc1c[nH]c2ccccc12)C(=O)N[C@@H](CC(=O)O)C(=O)N[C@@H](CCCNC(=N)N)C(=O)N[C@@H](Cc1ccccc1)C(=O)NCC(N)=O [SEQ ID NO. 9] | 
 |  |  |  |  |  |  |  | CCCC[C@H](NC(=O)[C@@H](NC(=O)[C@@H](N)Cc1ccc(O)cc1)C(C)C)C(=O)NCC(=O)N[C@@H](Cc1cnc[nH]1)C(=O)N[C@H](Cc1ccc2ccccc2c1)C(=O)N[C@@H](CCCN=C(N)N)C(=O)N[C@H](Cc1c[nH]c2ccccc12)C(=O)N[C@@H](CC(=O)O)C(=O)N[C@@H](CCCN=C(N)N)C(=O)N[C@@H](Cc1ccccc1)C(=O)NCC(N)=O [SEQ ID NO. 11, H-Tyr-Val-Nle-Gly-His-D-Nal(2′)-Arg-D-Trp-Asp-Arg-Phe-Gly-NH2] | Emax (hMC1R [5]): 70%; half-life (in vitro): 52 min; EC50 (hMC3R [6]): 0.3 ± 0.006 µM; Emax (hMC3R [6]; cAMP activity, read-out: hMC3R % max effect): 6%; Emax (hMC5R [7]): 6%; IC50 (hMC3R [2]; [12]): 0.005 ± 0.0006 µM; IC50 (hMC5R [4]; [13]): 0.0035 ± 0.0005 µM
 |  |  |  |  |  |  |  | CCCC[C@H](NC(=O)[C@@H](NC(=O)[C@H](Cc1ccc(O)cc1)NC(C)=O)C(C)C)C(=O)NCC(=O)N[C@@H](Cc1c[nH]cn1)C(=O)N[C@H](Cc1ccccc1)C(=O)N[C@@H](CCCNC(=N)N)C(=O)N[C@@H](Cc1c[nH]c2ccccc12)C(=O)N[C@@H](CC(=O)O)C(=O)N[C@@H](CCCNC(=N)N)C(=O)N[C@@H](Cc1ccccc1)C(=O)NCC(N)=O [SEQ ID NO. 12, Ac-Tyr-Val-Nle-Gly-His-D-Phe-Arg-Trp-Asp-Arg-Phe-Gly-NH2, reference compound] | Emax (hMC4R [8]): 100%
 |  | 45% |  | 58% |  | 0% | 100% | H-YVLGHFLFDRFG-NH2 [SEQ ID NO. 5] [listing 1 of 2 here] | selectivity towards hMC1R (binding, versus hMC3R, hMC4R, hMC5R) (hMC1R [1]): highly selective for MC1R; selectivity towards hMC1R (binding, versus hMC3R, hMC4R, hMC5R) (hMC1R [1]; listed as Peptide 5): significant selectivity towards hMC1R
0.022 µM | > 10 µM |  | 3.21 µM |  |  |  |  | H-YVLGHFLFDRFG-NH2 [SEQ ID NO. 5] [listing 2 of 2 here] | 
 |  | 26% |  | 47% |  | 57% | 100% | H-YVLGHFLWDRFG-NH2 [SEQ ID NO. 4] [listing 1 of 2 here] | 
1.48 µM | 1.88 µM |  | > 10 µM |  | 0.0073 µM |  |  | H-YVLGHFLWDRFG-NH2 [SEQ ID NO. 4] [listing 2 of 2 here] | 
0.011 µM | 1.4 µM | 47% | 0.058 µM | 36% | 0.0053 µM | 34% | 32% | H-YVLGPFLFDRFG-NH2 [SEQ ID NO. 7] | 
 | 0.04 µM | 32% | 0.013 µM | 29% | 0.0017 µM | 32% |  | H-YVLGPFLWDRFG-NH2 [SEQ ID NO. 6] | 
 | 1.25 µM | 33% |  | 0% |  | 0% | 0% | H-YVLGPFRFDRFG-NH2 [SEQ ID NO. 3] | 
 | 0.165 µM | 100% | 0.076 µM | 100% | 0.067 µM | 100% |  | H-YVLGPFRWDRFG-NH2 [SEQ ID NO. 2] | 
 |  |  |  |  |  |  |  | H-YVMGPFRWDRFG-NH2 [SEQ ID NO. 10] | EC50 (hMC3R [6]): 0.00033 ± 1e-05 µM; EC50 (hMC4R [8]; [14]): 0.1 ± 0.011 µM; Emax (hMC4R [8]): 99%; EC50 (hMC5R [7]; [14]): 0.082 ± 0.01 µM; Emax (hMC5R [7]): 97%; IC50 (hMC3R [2]; [12]): 0.0067 ± 0.001 µM; IC50 (hMC4R [3]; Table 2, concentration of peptide at 50% specific binding (N = 4), tested 10^-10 to 10^-5 M, read-out: hMC4R IC50): 0.6 ± 0.07 µM; IC50 (hMC5R [4]; [13]): 0.34 ± 0.04 µM
